Source: US20240239767A1 (AstraZeneca AB, priority 2022, published 2024)

How the values were obtained:
[1] = molecular target: GSK3b (Glycogen synthase kinase-3 beta) (Homo sapiens, UniProt P49841); assay: Assay 6 - GSK3b assay (ThermoFisher, FRET Z-Lyte); format: biochemical; details: geometric mean; ATP Conc: 10.000 μM; read-out: Assay 6 (GSK3B FRET-Z-Lyte CR) GMean IC50 (μM) ATP Conc: 10.000
Protocol: This assay measures the activity of the compounds at GSK3b (Glycogen synthase kinase-3 beta).
The test compounds were screened in 1% DMSO (final) in the well. For 10-point titrations, 3-fold serial dilutions are conducted from the starting concentration of 10 μM.
• Bar-coded Corning, low volume NBS, black 384-well plate • 1. 2.5 μL—4× Test Compound or 100 nL 100× plus 2.4 μL kinase buffer • 2. 5 μL—2× Peptide/Kinase Mixture • 3. 2.5 μL—4× ATP Solution • 4. 30-second plate shake • 5. 60-minute Kinase Reaction incubation at room temperature • 6. 5 μL—Development Reagent Solution • 7. 30-second plate shake • 8. 60-minute Development Reaction incubation at room temperature • 9. Read on fluorescence plate reader and analyse the data
In step 2, the 2× GSK3β (GSK3 beta)/Ser/Thr (Glycogen synthase kinase-3 beta/Serine/Threonine) 09 mixture is prepared in 50 mM HEPES (4-(2-hydroxyethyl)-1-piperazineethanesulfonic acid) pH 7.5, 0.01% BRIJ-35, 10 mM MgCl2, 1 mM EGTA (egtazic acid). The final 10 μL Kinase Reaction consists of 0.22-0.92 ng GSK3β (GSK3 beta) and 2 μM Ser/Thr 09 in 50 mM HEPES pH 7.5, 0.01% BRIJ-35, 10 mM MgCl2, 1 mM EGTA.
In step 3 the ATP Solution is diluted to a 4× working concentration in Kinase Buffer (50 mM HEPES pH 7.5, 0.01% BRIJ-35, 10 mM MgCl2, 1 mM EGTA).
In Step 6 the Development Reagent is diluted 1:512 in Development Buffer (10× Novel PKC Lipid Mix: 2 mg/mL Phosphatidyl Serine, 0.2 mg/mL DAG in 20 mM HEPES, pH 7.4, 0.3% CHAPS).
SelectScreen® Kinase Profiling Service uses XLfit from IDBS. The dose response curve is curve fit to model number 205 (sigmoidal dose-response model).

[2] = molecular target: T1, potassium ion channel hERG (human Ether-á-go-go-Related Gene) (Homo sapiens, UniProt Q12809); assay: Assay 5 - hERG assay (SyncroPatch 384PE patch clamp, CHO cells); format: cell-based; details: geometric mean, CHO cells over-expressing hERG, read-out: Assay 5 (hERG Hu CHO IF EPh CR-Syncro) GMean IC50
T1 construct: expressed in transfected cells; host or cells: Chinese hamster ovary K1 (CHO)
T1 sequence (Q12809 whole entry): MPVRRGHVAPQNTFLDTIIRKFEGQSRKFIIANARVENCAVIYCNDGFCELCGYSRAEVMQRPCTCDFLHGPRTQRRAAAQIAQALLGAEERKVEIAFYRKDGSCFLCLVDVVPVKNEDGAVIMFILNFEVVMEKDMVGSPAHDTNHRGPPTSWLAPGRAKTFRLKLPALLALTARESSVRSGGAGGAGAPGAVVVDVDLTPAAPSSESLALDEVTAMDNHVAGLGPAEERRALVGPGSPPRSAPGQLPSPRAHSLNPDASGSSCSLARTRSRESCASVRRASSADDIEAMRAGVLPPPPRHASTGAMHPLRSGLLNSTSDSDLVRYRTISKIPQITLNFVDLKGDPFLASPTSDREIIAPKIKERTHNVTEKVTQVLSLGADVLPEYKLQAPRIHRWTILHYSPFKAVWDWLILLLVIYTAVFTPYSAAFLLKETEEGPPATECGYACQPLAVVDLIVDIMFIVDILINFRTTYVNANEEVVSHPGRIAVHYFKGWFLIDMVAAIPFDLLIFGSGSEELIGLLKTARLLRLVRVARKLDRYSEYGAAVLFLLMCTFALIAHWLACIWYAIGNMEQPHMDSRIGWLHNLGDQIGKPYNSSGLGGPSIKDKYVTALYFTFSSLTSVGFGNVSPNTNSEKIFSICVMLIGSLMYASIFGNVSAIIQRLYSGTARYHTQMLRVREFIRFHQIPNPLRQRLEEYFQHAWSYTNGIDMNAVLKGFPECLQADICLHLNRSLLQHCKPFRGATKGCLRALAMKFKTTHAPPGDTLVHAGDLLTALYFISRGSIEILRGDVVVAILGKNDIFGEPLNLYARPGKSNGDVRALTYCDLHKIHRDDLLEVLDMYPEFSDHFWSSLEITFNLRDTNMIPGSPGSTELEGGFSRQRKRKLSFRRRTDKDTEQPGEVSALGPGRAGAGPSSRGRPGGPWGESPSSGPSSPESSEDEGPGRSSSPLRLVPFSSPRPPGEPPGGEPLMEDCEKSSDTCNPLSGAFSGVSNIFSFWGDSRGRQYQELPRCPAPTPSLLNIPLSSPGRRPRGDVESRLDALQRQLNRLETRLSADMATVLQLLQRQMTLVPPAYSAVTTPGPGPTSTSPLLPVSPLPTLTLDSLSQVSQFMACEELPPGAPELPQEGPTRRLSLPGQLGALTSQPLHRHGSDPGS
Protocol: Assay 5—hERG Assay (Human Ether-á-go-go-Related Gene)
This assay (human Ether-á-go-go-Related Gene) measures activity of the compounds at the potassium ion channel hERG (human Ether-á-go-go-Related Gene).
Experiments were performed on the SyncroPatch 384PE high throughput patch clamp platform at room temperature and medium resistance chips with 4 patch holes per site. Chinese hamster ovary K1 (CHO) cell lines over-expressing the ion channel of choice (hERG) were used in assay-ready format and kept in liquid nitrogen or were used from live culture. Cells were either thawed and diluted in HBSS or were detached from flasks and resuspended in HBSS. HBSS comprised 140 mM NaCl, 4 mM KCl, 10 mM HEPES and 5 mM Glucose (pH 7.4). The internal patch clamp solution was KF 120 mM, KCl 20 mM, HEPES 10 mM, EGTA 10 mM, and 25 μM Escin (pH 7.2). After the sealing process was complete, the external solution was exchanged for external patch clamp solution comprising NaCl 80 mM, KCl 4 mM, HEPES 10 mM, CaCl2 2 mM, MgCl2 1 mM, glucose 5 mM, and NMDG 60 mM (pH 7.4). All solutions were stored at room temperature, except Escin, which was stored at 4° C. All test compounds were dispensed in greiner-bio 384 well plates and tested in a 6 point cumulative assay (final DMSO concentration 0.33%). Only wells that passed previously agreed acceptance criteria for this platform were used in this analysis (30 MegaOhm seal resistance, Z prime>0.4 and current size>0.2 nA).

PCSK9 [3] = molecular target: T2, PCSK9 (Homo sapiens, UniProt Q8NBP7, G670E/V474I); assay: biochemical
Target sequence in this assay (Q8NBP7 with tags, fused parts or gaps V474I/G670E): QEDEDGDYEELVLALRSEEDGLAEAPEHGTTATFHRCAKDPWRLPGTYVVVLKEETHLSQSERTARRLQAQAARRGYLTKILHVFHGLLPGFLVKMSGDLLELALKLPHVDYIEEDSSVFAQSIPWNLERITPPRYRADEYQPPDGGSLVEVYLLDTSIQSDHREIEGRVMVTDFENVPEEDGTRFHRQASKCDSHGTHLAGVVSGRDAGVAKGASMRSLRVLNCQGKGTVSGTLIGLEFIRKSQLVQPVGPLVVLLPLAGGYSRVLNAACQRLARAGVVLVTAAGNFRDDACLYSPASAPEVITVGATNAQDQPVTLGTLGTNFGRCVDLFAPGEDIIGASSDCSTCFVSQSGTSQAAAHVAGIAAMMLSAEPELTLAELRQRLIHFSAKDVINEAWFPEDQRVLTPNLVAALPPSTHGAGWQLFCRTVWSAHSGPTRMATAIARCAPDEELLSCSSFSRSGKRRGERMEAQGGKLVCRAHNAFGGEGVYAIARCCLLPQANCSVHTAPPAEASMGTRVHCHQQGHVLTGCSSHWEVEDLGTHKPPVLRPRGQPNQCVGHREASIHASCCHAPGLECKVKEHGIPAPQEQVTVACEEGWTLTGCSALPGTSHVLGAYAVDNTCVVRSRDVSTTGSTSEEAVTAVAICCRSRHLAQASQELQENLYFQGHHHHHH

PCSK9 [4] = molecular target: T2, PCSK9; assay: cell-based
Target sequence in this assay (Q8NBP7 31-152): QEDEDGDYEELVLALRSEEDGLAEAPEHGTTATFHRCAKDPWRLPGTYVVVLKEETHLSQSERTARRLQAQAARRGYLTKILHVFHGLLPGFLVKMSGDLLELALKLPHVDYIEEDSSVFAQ
Target sequence in this assay (Q8NBP7 153-692 V474I/G670E): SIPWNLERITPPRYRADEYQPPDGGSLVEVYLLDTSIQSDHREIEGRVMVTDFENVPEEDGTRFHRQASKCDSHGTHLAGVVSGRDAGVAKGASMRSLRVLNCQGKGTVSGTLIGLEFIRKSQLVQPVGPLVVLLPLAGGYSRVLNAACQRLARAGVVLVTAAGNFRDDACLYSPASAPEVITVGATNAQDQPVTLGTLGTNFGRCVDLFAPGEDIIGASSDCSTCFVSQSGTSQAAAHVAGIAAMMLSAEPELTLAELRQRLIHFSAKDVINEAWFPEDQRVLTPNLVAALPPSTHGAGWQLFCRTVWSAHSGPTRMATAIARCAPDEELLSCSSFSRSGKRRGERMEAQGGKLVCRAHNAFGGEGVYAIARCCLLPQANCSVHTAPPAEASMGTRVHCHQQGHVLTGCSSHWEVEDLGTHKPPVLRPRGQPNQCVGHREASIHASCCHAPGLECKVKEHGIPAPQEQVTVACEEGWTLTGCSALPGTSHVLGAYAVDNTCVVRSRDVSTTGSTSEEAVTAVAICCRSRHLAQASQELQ
Text: This assay measures for PCSK9 antagonist activity based on a test compound's capacity to restore LDL-C uptake in HepG2 cells. The assay is based on exogenous PCSK9 and LDL-C complexed with a pH-sensitive dye. Outside the cells, at neutral pH, the pHrodo Red-LDL is dimly fluorescent but upon LDLR mediated endocytosis it fluoresces brightly. PCSK9 traffics the LDLR to intracellular degradation and reduces uptake of LDL-C. Inhibition of PCSK9 reduces LDLR degradation and the increased LDL-C uptake is quantified by fluorescence microscopy.
Cell medium: MEM supplemented with 10% FBS, 1× NEAA and Sodium Pyruvate
Assay medium: OptiMem supplemented with penicillin/streptomycin
Cells: HepG2 (ATCC #HB-8065)
Cryopreserved HepG2 cells were thawed in assay medium and centrifuged for 5 min at 250 g. Supernatant was discarded and the cell pellet resuspended in cell medium and counted with a Nucleocounter. Cells were again centrifuged 5 min at 250 g and the pellet was resuspended to 500000 cells/mL in assay medium. • 2. 20 μL of above cell mix was dispensed into black pclear TC treated 384 well plates with Multidrop Combi and left at room temperature for 20 minutes. • 3. Plates were incubated at 37° C., 5% CO2 for 24 h
Test compounds were prepared in concentration response in DMSO with a half-log dilution factor in DMSO in Echo 384 LDV plates starting at 10 mM. • 2. 30 nL of above test compounds were dispensed with Echo 655 to cells for a top concentration of 10 μM • 3. […] Plates were incubated at 37° C., 5% CO2 for 24 h
10 μL pHrodo Red-LDL in assay medium was dispensed to cells with Multidrop Combi for 6 μg/mL • 2. Plates were incubated at 37° C., 5% CO2 and imaged with the Incucyte S3 after 4 h and 24 h
Image data was processed using Incucyte 2021, a software to identify cells and red fluorescent intensity. Screener was used to further process data. Data was normalized as % effect of the signal between median values of the on-plate controls of DMSO and 100 nM Evolocumab according to the formula % effect=−100*(x−DMSO)/(Evolocumab−DMSO) where x equals the measured signal. Concentration response data of the normalized values were fitted using a four-parameter logistic fit.

GSK3b (Glycogen synthase kinase-3 beta), sequence (P49841 whole entry): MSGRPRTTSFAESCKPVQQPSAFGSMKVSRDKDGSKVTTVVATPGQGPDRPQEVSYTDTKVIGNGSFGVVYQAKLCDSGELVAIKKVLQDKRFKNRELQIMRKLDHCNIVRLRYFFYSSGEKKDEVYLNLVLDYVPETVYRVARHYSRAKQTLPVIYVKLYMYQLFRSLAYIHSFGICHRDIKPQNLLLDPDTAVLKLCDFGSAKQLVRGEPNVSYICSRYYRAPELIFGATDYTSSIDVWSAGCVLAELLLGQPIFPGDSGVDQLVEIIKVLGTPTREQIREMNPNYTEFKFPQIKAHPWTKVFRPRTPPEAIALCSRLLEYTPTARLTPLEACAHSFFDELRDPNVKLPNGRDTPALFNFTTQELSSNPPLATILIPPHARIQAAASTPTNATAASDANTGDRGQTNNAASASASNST

Row | Compound | IC50 [1] [µM] | IC50 [2] [µM] | IC50 (PCSK9 [3]) [µM] | IC50 (PCSK9 [4]) [µM]
1 | COc1ccc(=O)n(-c2ccc(N[C@H]3CC[C@H](Nc4nc5cccnc5[nH]4)C3)nc2)c1 [Example 72, 6′-(((1S,3S)-3-((3H-Imidazo[4,5-b]pyridin-2-yl)amino)cyclopentyl)amino)-5-methoxy-2H-[1,3′-bipyridin]-2-one] | 0.01 | > 40 | 0.005 | 0.163
2 | O=c1ccccn1-c1ccc(N[C@H]2CC[C@H](Nc3nc4cc(Br)cnc4s3)C2)nc1 [Compound 87, 6′-(((1S,3S)-3-((6-Bromothiazolo[5,4-b]pyridin-2-yl)amino)cyclopentyl)amino)-2H-[1,3′-bipyridin]-2-one] | 6.74 | 4.31 | 0.0014 | 0.41
3 | N#Cc1cccn(-c2ccc(N[C@H]3CC[C@H](Nc4nc5cccnc5s4)C3)nc2)c1=O [Example 23, 2-Oxo-6′-(((1S,3S)-3-(thiazolo[5,4-b]pyridin-2-ylamino)cyclopentyl)amino)-2H-[1,3′-bipyridine]-3-carbonitrile] | > 10 | 24.6 | 0.0012 | 0.092
4 | Cn1cccc(-c2cnc(N[C@H]3CC[C@H](Nc4nc5cccnc5[nH]4)C3)nc2)c1=O [Example 39, 3-(2-(((1S,3S)-3-((3H-Imidazo[4,5-b]pyridin-2-yl)amino)cyclopentyl)amino)pyrimidin-5-yl)-1-methylpyridin-2(1H)-one] | > 10 | > 40 | 0.0061 | 0.093
5 | Cc1cnc2[nH]c(N[C@H]3CC[C@H](Nc4ccc(-n5ccccc5=O)cn4)C3)nc2c1 [Example 49, 6′-(((1S,3S)-3-((6-Methyl-3H-imidazo[4,5-b]pyridin-2-yl)amino)cyclopentyl)amino)-2H-[1,3′-bipyridin]-2-one] | 5.59 | > 40 | 0.0028 | 0.043
6 | Cc1cccn(-c2ccc(N[C@H]3CC[C@H](Nc4nc5cccnc5s4)C3)nc2)c1=O [Example 22, 3-Methyl-6′-(((1S,3S)-3-(thiazolo[5,4-b]pyridin-2-ylamino)cyclopentyl)amino)-2H-[1,3′-bipyridin]-2-one] | > 10 | 25.7 | 0.0012 | 0.054
7 | O=c1ccc(OC(F)F)cn1-c1ccc(N[C@H]2CC[C@H](Nc3nc4cccnc4s3)C2)nc1 [Example 77, 5-(Difluoromethoxy)-6′-(((1S,3S)-3-(thiazolo[5,4-b]pyridin-2-ylamino)cyclopentyl)amino)-2H-[1,3′-bipyridin]-2-one] | 4.72 | 10.4 | 0.0042 | 0.204
8 | COc1ccc(=O)n(-c2ccc(N[C@H]3CC[C@H](Nc4nc5cccnc5o4)C3)nc2)c1 [Example 14, 5-Methoxy-6′-(((1S,3S)-3-(oxazolo[5,4-b]pyridin-2-ylamino)cyclopentyl)amino)-2H-[1,3′-bipyridin]-2-one] | 0.423 | > 40 | 0.0255 | 0.632
9 | O=c1cccnn1-c1ccc(N[C@H]2CC[C@H](Nc3nc4cccnc4[nH]3)C2)nc1 [Example 28, 2-(6-(((1S,3S)-3-((3H-Imidazo[4,5-b]pyridin-2-yl)amino)cyclopentyl)amino)pyridin-3-yl)pyridazin-3(2H)-one] | > 10 | > 40 | 0.0057 | 0.173
10 | CCc1cnc2[nH]c(N[C@H]3CC[C@H](Nc4ccc(-n5ccccc5=O)cn4)C3)nc2c1 [Example 56, 6′-(((1S,3S)-3-((6-Ethyl-3H-imidazo[4,5-b]pyridin-2-yl)amino)cyclopentyl)amino)-2H-[1,3′-bipyridin]-2-one] | 3.13 | > 40 | 0.0031 | 0.395
11 | O=c1c(OC(F)(F)F)cccn1-c1ccc(N[C@H]2CC[C@H](Nc3nc4cccnc4[nH]3)C2)nc1 [Example 63, 6′-(((1S,3S)-3-((3H-Imidazo[4,5-b]pyridin-2-yl)amino)cyclopentyl)amino)-3-(trifluoromethoxy)-2H-[1,3′-bipyridin]-2-one] | > 10 | > 40 | 0.0021 | 0.051
12 | O=c1ccccn1-c1ccc(N[C@H]2CC[C@H](Nc3nc4cc(Br)cnc4[nH]3)C2)nc1 [Example 54, 6′-(((1S,3S)-3-((6-Bromo-3H-imidazo[4,5-b]pyridin-2-yl)amino)cyclopentyl)amino)-2H-[1,3′-bipyridin]-2-one] | 0.306 | > 40.1 | 0.0007 | 0.041
13 | O=c1ccccn1-c1ccc(N[C@H]2CC[C@H](Nc3nc4cc(Cl)cnc4[nH]3)C2)nc1 [Example 47, 6′-(((1S,3S)-3-((6-Chloro-3H-imidazo[4,5-b]pyridin-2-yl)amino)cyclopentyl)amino)-2H-[1,3′-bipyridin]-2-one] | 0.331 | > 40 | 0.0016 | 0.064
14 | O=c1ccc(-c2nn[nH]n2)cn1-c1ccc(N[C@H]2CC[C@H](Nc3nc4cccnc4[nH]3)C2)nc1 [Example 86, 6′-(((1S,3S)-3-((3H-Imidazo[4,5-b]pyridin-2-yl)amino)cyclopentyl)amino)-5-(2H-tetrazol-5-yl)-2H-[1,3′-bipyridin]-2-one] | – | – | 0.0035 | 0.187
15 | Fc1ccccc1-c1ccc(N[C@H]2CC[C@H](Nc3nc4cccnc4[nH]3)C2)nc1 [Example 69, (1S,3S)—N^1-(5-(2-Fluorophenyl)pyridin-2-yl)-N^3-(3H-imidazo[4,5-b]pyridin-2-yl)cyclopentane-1,3-diamine] | > 10 | 1.17 | 0.083 | –
16 | Cc1ccc2nc(N[C@H]3CC[C@H](Nc4ccc(-n5ccccc5=O)cn4)C3)oc2c1 [Example 2, 6′-(((1S,3S)-3-((6-Methylbenzo[d]oxazol-2-yl)amino)cyclopentyl)amino)-2H-[1,3′-bipyridin]-2-one] | > 10 | 13.2 | 0.0118 | –
17 | O=c1ccccn1-c1ccc(N[C@H]2CC[C@H](Nc3nc4ncccc4o3)C2)nc1 [Compound 89, 6′-(((1S,3S)-3-(Oxazolo[4,5-b]pyridin-2-ylamino)cyclopentyl)amino)-2H-[1,3′-bipyridin]-2-one] | > 10 | > 40.1 | 0.259 | –
18 | O=c1ccccn1-c1ccc(N[C@H]2CC[C@H](Nc3nc4cc(CO)ccc4s3)C2)nc1 [Example 84, 6′-(((1S,3S)-3-((5-(Hydroxymethyl)benzo[d]thiazol-2-yl)amino)cyclopentyl)amino)-2H-[1,3′-bipyridin]-2-one] | > 10 | > 40.1 | 0.239 | –
19 | O=c1ccccn1-c1ccc(N[C@H]2CC[C@H](Nc3nc4cccnc4[nH]3)C2)cc1 [Example 74, 1-(4-(((1S,3S)-3-((3H-Imidazo[4,5-b]pyridin-2-yl)amino)cyclopentyl)amino)phenyl)pyridin-2(1H)-one] | > 10 | > 40 | 0.173 | –
20 | N#Cc1ccc(=O)n(-c2ccc(N[C@H]3CC[C@H](Nc4nc5cccnc5o4)C3)nc2)c1 [Example 17, 6′-(((1S,3S)-3-(Oxazolo[5,4-b]pyridin-2-ylamino)cyclopentyl)amino)-2-oxo-2H-[1,3′-bipyridine]-5-carbonitrile] | > 10 | > 40.1 | 0.0305 | –
